Measured values: patent US7960560B2, “1-(biphenyl-4-ylmethyl)imidazolidine-2,4-dione” (N.V. Organon, priority 2008, dated 2011)

Key:
[1] = tested on: mechanical hyperalgesia induced by complete Freund's adjuvant in rats; assay: Mechanical hyperalgesia in the rat (CFA model of inflammatory pain); type: in vivo; details: for % Attenuation of hyperalgesia (peak effect): male Wistar rats, 24 h after CFA, reading 3 h post drug, vehicle −0.6 ± 11
Description: Mechanical Hyperalgesia in the Rat
In this rat model of inflammatory pain, inflammation is induced by subcutaneous injection of complete Freund's adjuvant (CFA) into the hind paw. The associated mechanical hyperalgesia is quantified by measuring the reduction in paw withdrawal threshold (PWT) to a mechanical compression of the paw.
Experiments were in male Wistar rats weighing (141-175 g). In brief, the rats' paw withdrawal threshold (PWT) to a mechanical compression of the hind paw was measured (baseline reading) using a Randall-Sellito apparatus (Ugo Basile). A cut-off of 20 g was employed to minimise tissue damage to the paw. The animals were then lightly anaesthetised with isoflurane (1-3%) and CFA (0.1 ml.paw^−1) injected subcutaneously (s.c.) into the plantar surface of the left hind paw. The animals were then returned to their home cage and left for the inflammation to develop.
Twenty four h after CFA injection, PWT's were re-measured (0 min) and immediately after this reading, rats were dosed orally with either vehicle or compound 3K (4.5-45 μmol/kg p.o.) Readings were then made at 3 h post drug administration.
Data were plotted as mean±s.e.m. and compared between groups using the Kruskal-Wallis one-way analysis of variance, a non-parametric statistical test.
The percent attenuation of mechanical hyperalgesia is calculated as follows.

[2] = tested on: mechanical allodynia induced by spinal nerve ligation in rats; assay: The rat (Chung) model of neuropathic pain; type: in vivo; details: for Withdrawal threshold (g) at peak effect: male Wistar rats, von Frey, vehicle 2.7 ± 0.2
Description: The Rat (Chung) Model of Neuropathic Pain
In this model, mechanical allodynia is induced by tight ligation of the left L5 spinal nerve.
Male Wistar rats (228-301 g body weight at time of surgery) were employed in the study. Rats were placed on an elevated (˜40 cm) mesh floor in perspex boxes and the rats' withdrawal threshold to a mechanical stimulus (calibrated von Frey filaments) was measured using filaments of increasing force (2.6-167 mN). The von Frey filaments were applied to the plantar surface of the paw and threshold response determined using the up and down method. A positive response was noted if the paw was sharply withdrawn. A cut-off of 15 g was selected as the upper limit for testing. Following baseline measurements each animal was anaesthetised and the L5 spinal nerve tightly ligated. The animals were allowed to recover from the surgery for a period of at least three days. On the day of drug administration the paw withdrawal thresholds were re-measured (0 min). Immediately after this reading, the rats were dosed orally with vehicle or test compound and readings measured at various time points after compound administration.
Data were expressed as mean±s.e.m. Statistical analysis was performed using the Kruskal-Wallis one-way analysis of variance, a non-parametric statistical test. Each of the treatment groups were then compared against the vehicle group, using the non-parametric Dunn's test.

O=C1CN(Cc2ccc(-c3ccccc3CN3CCOCC3)cc2)C(=O)N1CC1CC1 [Example 3K, 3-Cyclopropylmethyl-1-(2′-(morpholin-4-ylmethyl)biphenyl-4-ylmethyl)imidazolidine-2,4-dione]
% Attenuation of hyperalgesia (peak effect) ([1]; 4.5 μmol/kg p.o.): 36 ± 11% | % Attenuation of hyperalgesia (peak effect) ([1]; 45 μmol/kg p.o., p ≦ 0.001): 100 ± 25 % | Effect on mechanical hyperalgesia induced by CFA ([1]; 4.5-45 μmol/kg oral): reversed mechanical hyperalgesia induced by CFA in a dose-dependent fashion | MED ([1]; p.o., CFA-induced mechanical hyperalgesia, rat): 4.4 µmol/kg | Withdrawal threshold (g) at peak effect ([2]; 4.5 μmol/kg p.o.): 5.8 ± 1.1 g | Withdrawal threshold (g) at peak effect ([2]; 15 μmol/kg p.o., p ≦ 0.05): 6.4 ± 1.0 g | Withdrawal threshold (g) at peak effect ([2]; 45 μmol/kg p.o., p ≦ 0.05): 7.4 ± 1.3 g | Effect on mechanical allodynia ([2]; 4.5-45 μmol/kg p.o., at 120 and 180 min post drug administration): attenuated mechanical allodynia in a dose-dependent fashion | Minimum effective dose (MED) ([2]; p.o., mechanical allodynia, rat): 15 µmol/kg
